Experimental data as given in US12435044B2, “Pyridazinone herbicides and pyridazinone intermediates used to prepare a herbicide” (FMC Corporation, priority 2018, dated 2025).

What was measured:
Assay type in all cases: in vivo
[1] = system: barnyardgrass (Echinochloa crus-galli); test: Test B flooded paddy test; conditions: Flood, 250 g ai/ha
Experimental: (§1) Plant species in the flooded paddy test selected from rice (Oryza sativa), sedge, umbrella (small-flower umbrella sedge, Cyperus difformis), duck salad (Heteranthera limosa) and barnyardgrass (Echinochloa crus-galli) were grown to the 2-leaf stage for testing. At time of treatment, test pots were flooded to 3 cm above the soil surface, treated by application of test compounds directly to the paddy water, and then maintained at that water depth for the duration of the test. Treated plants and controls were maintained in a greenhouse for 13 to 15 d, after which time all species were compared to controls and visually evaluated. Plant response ratings, summarized in Table B, are based on a scale of 0 to 100 where 0 is no effect and 100 is complete control. A dash (-) response means no test result.

[2] = system: duck salad (Heteranthera limosa); test: Test B flooded paddy test; conditions: Flood, 250 g ai/ha, Ducksalad
Experimental: as §1

[3] = system: rice (Oryza sativa); test: Test B flooded paddy test; conditions: Flood, 250 g ai/ha
Experimental: as §1

[4] = system: sedge, umbrella (small-flower umbrella sedge, Cyperus difformis); test: Test B flooded paddy test; conditions: Flood, 250 g ai/ha
Experimental: as §1

[5] = system: chickweed (common chickweed, Stellaria media); test: Test C postemergence greenhouse test; conditions: scale 0 to 100
From the text: (§2) Seeds of plant species selected from blackgrass (Alopecurus myosuroides), ryegrass, Italian (Lolium multiflorum), wheat, winter (winter wheat, Triticum aestivum), galium (catchweed bedstraw, Galium aparine), corn (Zea mays), crabgrass, large (Digitaria sanguinalis), foxtail, giant (Setaria faberii), johnsongrass (Sorghum halepense), lambsquarters (Chenopodium album), morningglory (Ipomoea coccinea), nutsedge, yellow (Cyperus esculentus), pigweed (Amaranthus retroflexus), ragweed (common ragweed, Ambrosia elatior), soybean (Glycine max), barnyardgrass (Echinochloa crus-galli), oilseed rape (Brassica napus), waterhemp (common waterhemp, Amaranthus rudis), pigweed, palmer (Amaranthus palmeri), kochia (Kochia scoparia), oat, wild (Avena fatua), surinam grass (Brachiaria decumbens), windgrass (Apera spica-venti), poinsettia, wild (Euphorbia heterophylla) and velvetleaf (Abutilon theophrasti) were planted into a silt loam soil and treated preemergence with test chemicals formulated in a non-phytotoxic solvent mixture which included a surfactant.
(§3) At the same time, plants selected from these crop and weed species and also chickweed (common chickweed, Stellaria media), buckwheat, wild (Polygonum convolvulus), mustard, wild (Sinapis arvensis), field poppy (Papaver rhoeas), field violet (Viola arvensis), nightshade (eastern black nightshade, Solanum ptycanthum), speedwell (bird's-eye speedwell, Veronica persica), horseweed (Conyza canadensis), cutleaf geranium (Geranium dissectum), and Canada thistle (Cirsium arvense) were planted in pots containing Redi-Earth® planting medium (Scotts Company, 14111 Scottslawn Road, Marysville, Ohio 43041) comprising spaghnum peat moss, vermiculite, wetting agent and starter nutrients and treated with postemergence applications of test chemicals formulated in the same manner. Plants ranged in height from 2 to 18 cm (1- to 4-leaf stage) for postemergence treatments. Treated plants and controls were maintained in a greenhouse for 13 to 21 d, after which time all species were compared to controls and visually evaluated. Plant response ratings, summarized in Table C-1 (postemergence) and C-2 (preemergence), are based on a scale of 0 to 100 where 0 is no effect and 100 is complete control. A dash (-) response means no test result.

[6] = system: field poppy (Papaver rhoeas); test: Test C postemergence greenhouse test; conditions: scale 0 to 100
From the text: as §2, §3

[7] = system: barley, spring (Hordeum vulgare); test: Test D pre-/postemergence controlled growth environment test
[8] = system: galium (catchweed bedstraw, Galium aparine); test: as above
[9] = system: kochia (Kochia scoparia); test: as above
[10] = system: oat, wild (Avena fatua); test: as above
[11] = system: wheat, winter (Triticum aestivum); test: as above
How it was run: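 Potted seedlings at the 1- to 4-leaf stage, 2 to 18 cm tall, receive a postemergence application of test chemical formulated in a surfactant-containing non-phytotoxic solvent blend. They are held in a controlled growth environment for 14 to 21 d, then scored visually relative to controls from 0 (no effect) to 100 (complete control).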

Cc1cc(Cl)c2ccccc2c1-c1c(O)c(Cl)nn(C)c1=O [Cpd. No. 65]
Plant response rating (0 to 100 scale) [1]: 40
Plant response rating (0 to 100 scale) [2]: 80
Plant response rating (0 to 100 scale) [3]: 20
Plant response rating (0 to 100 scale) [4]: 90
Plant response rating, Chickweed ([5]; 16 g ai/ha): 98
Plant response rating, Chickweed ([5]; 31 g ai/ha): 95
Plant response rating, Chickweed ([5]; 62 g ai/ha): 95
Plant response rating, Chickweed ([5]; 125 g ai/ha): 98
Plant response rating, Field Poppy ([6]; 16 g ai/ha): 80
Plant response rating, Field Poppy ([6]; 31 g ai/ha): 98
Plant response rating, Field Poppy ([6]; 62 g ai/ha): 98
Plant response rating, Field Poppy ([6]; 125 g ai/ha): 100
Plant response rating, Barley, Spring ([7]; Postemergence, 16 g ai/ha): 57
Plant response rating, Barley, Spring ([7]; Postemergence, 31 g ai/ha): 78
Plant response rating, Barley, Spring ([7]; Postemergence, 62 g ai/ha): 88
Plant response rating, Barley, Spring ([7]; Postemergence, 125 g ai/ha): 93
Plant response rating, Barley, Spring ([7]; Preemergence, 16 g ai/ha): 0
Plant response rating, Barley, Spring ([7]; Preemergence, 31 g ai/ha): 3
Plant response rating, Barley, Spring ([7]; Preemergence, 62 g ai/ha): 5
Plant response rating, Barley, Spring ([7]; Preemergence, 125 g ai/ha): 73
Plant response rating, Galium ([8]; Postemergence, 16 g ai/ha): 85
Plant response rating, Galium ([8]; Postemergence, 31 g ai/ha): 97
Plant response rating, Galium ([8]; Postemergence, 62 g ai/ha): 97
Plant response rating, Galium ([8]; Postemergence, 125 g ai/ha): 98
Plant response rating, Galium ([8]; Preemergence, 16 g ai/ha): 13
Plant response rating, Galium ([8]; Preemergence, 31 g ai/ha): 82
Plant response rating, Galium ([8]; Preemergence, 62 g ai/ha): 98
Plant response rating, Galium ([8]; Preemergence, 125 g ai/ha): 100
Plant response rating, Kochia ([9]; Postemergence, 16 g ai/ha): 35
Plant response rating, Kochia ([9]; Postemergence, 31 g ai/ha): 50
Plant response rating, Kochia ([9]; Postemergence, 62 g ai/ha): 75
Plant response rating, Kochia ([9]; Postemergence, 125 g ai/ha): 90
Plant response rating, Kochia ([9]; Preemergence, 16 g ai/ha): 12
Plant response rating, Kochia ([9]; Preemergence, 31 g ai/ha): 22
Plant response rating, Kochia ([9]; Preemergence, 62 g ai/ha): 72
Plant response rating, Kochia ([9]; Preemergence, 125 g ai/ha): 93
Plant response rating, Oat, Wild ([10]; Postemergence, 16 g ai/ha): 92
Plant response rating, Oat, Wild ([10]; Postemergence, 31 g ai/ha): 92
Plant response rating, Oat, Wild ([10]; Postemergence, 62 g ai/ha): 96
Plant response rating, Oat, Wild ([10]; Postemergence, 125 g ai/ha): 99
Plant response rating, Oat, Wild ([10]; Preemergence, 16 g ai/ha): 28
Plant response rating, Oat, Wild ([10]; Preemergence, 31 g ai/ha): 80
Plant response rating, Oat, Wild ([10]; Preemergence, 62 g ai/ha): 83
Plant response rating, Oat, Wild ([10]; Preemergence, 125 g ai/ha): 97
Plant response rating, Wheat, Winter ([11]; Postemergence, 16 g ai/ha): 85
Plant response rating, Wheat, Winter ([11]; Postemergence, 31 g ai/ha): 90
Plant response rating, Wheat, Winter ([11]; Postemergence, 62 g ai/ha): 90
Plant response rating, Wheat, Winter ([11]; Postemergence, 125 g ai/ha): 92
Plant response rating, Wheat, Winter ([11]; Preemergence, 16 g ai/ha): 23
Plant response rating, Wheat, Winter ([11]; Preemergence, 31 g ai/ha): 67
Plant response rating, Wheat, Winter ([11]; Preemergence, 62 g ai/ha): 80
Plant response rating, Wheat, Winter ([11]; Preemergence, 125 g ai/ha): 93

Cc1ccc2ccc(F)cc2c1-c1c(O)c(Cl)nn(C)c1=O [Cpd. No. 21]
Plant response rating (0 to 100 scale) [1]: 80
Plant response rating (0 to 100 scale) [2]: 90
Plant response rating (0 to 100 scale) [3]: 35
Plant response rating (0 to 100 scale) [4]: 90
Plant response rating, Field Poppy ([6]; 16 g ai/ha): 60
Plant response rating, Field Poppy ([6]; 31 g ai/ha): 70
Plant response rating, Field Poppy ([6]; 62 g ai/ha): 75
Plant response rating, Field Poppy ([6]; 125 g ai/ha): 98
